Assays:
Assay in all cases: relative viability (nuclei count vs DMSO), 5 days (fraction); higher = more cells survive
[1] = compound: C[C@@H](N)c1ccc(C(=O)Nc2ccnc3[nH]ccc23)cc1 + COc1cccc2cc(-c3nc([C@H]4CC[C@H](C(=O)O)CC4)n4ncnc(N)c34)[nH]c12 [OSI-027] (partner 0.5 µM)
Method in brief: (§1)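 Cells from lung cancer lines were seeded into 1536-well plates and, one day later, dosed by pin tool. Treatments were either a single drug or a fixed dose of an anchor drug with five library-drug doses (not always all listed) in √10 steps. After 5 days, nuclei were stained in a one-step fixation (final 0.05% Triton X-100, 1% formaldehyde, 1 ug/ml Hoechst) and counted on 4× images, and relative viability is the treated-to-vehicle nuclei ratio, as the median of duplicate plates.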

[2] = compound: O[C@H]1CC[C@H](Nc2ncc3nc(Nc4c(F)cc(F)cc4F)n([C@H]4CCOC4)c3n2)CC1 [Tanzisertib] + C[C@@H](Oc1cc(-c2cnn(C3CCNCC3)c2)cnc1N)c1c(Cl)ccc(F)c1Cl [Crizotinib] (partner 1 µM)
Method in brief: as §1

[3] = compound: C[C@@H](N)c1ccc(C(=O)Nc2ccnc3[nH]ccc23)cc1 + CS(=O)(=O)CCNCc1ccc(-c2ccc3ncnc(Nc4ccc(OCc5cccc(F)c5)c(Cl)c4)c3c2)o1 [Lapatinib] (partner 2 µM)
Method in brief: as §1

[4] = compound: C[C@@H](N)c1ccc(C(=O)Nc2ccnc3[nH]ccc23)cc1 + Nc1nc2[nH]cc(CCc3ccc(C(=O)N[C@@H](CCC(=O)O)C(=O)O)cc3)c2c(=O)[nH]1 [Pemetrexed] (partner 0.2 µM)
Method in brief: as §1

UMC-11
relative viability ([1]; first compound 0.04 µM): 0.583
relative viability ([1]; first compound 0.1265 µM): 0.565
relative viability ([1]; first compound 0.4 µM): 0.555
relative viability ([1]; first compound 1.265 µM): 0.453
relative viability ([1]; first compound 4 µM): 0.459
relative viability ([2]; first compound 0.08 µM): 0.654
relative viability ([2]; first compound 0.253 µM): 0.703
relative viability ([2]; first compound 0.8 µM): 0.631
relative viability ([2]; first compound 2.53 µM): 0.687
relative viability ([2]; first compound 8 µM): 0.675
relative viability ([3]; first compound 0.04 µM): 1.02
relative viability ([3]; first compound 0.1265 µM): 0.974
relative viability ([3]; first compound 0.4 µM): 1.05
relative viability ([3]; first compound 1.265 µM): 0.459
relative viability ([3]; first compound 4 µM): 0.812
relative viability ([4]; first compound 0.04 µM): 0.915
relative viability ([4]; first compound 0.1265 µM): 0.889
relative viability ([4]; first compound 0.4 µM): 0.955
relative viability ([4]; first compound 1.265 µM): 0.764
relative viability ([4]; first compound 4 µM): 0.498

From the supplement of paper PMC10307832
